The results in this text go back to patent US20260109712A1, “RIFAMYCINS FOR NONTUBERCULOUS MYCOBACTERIA” (priority 2022, published 2026).

Assay type in all cases: cell-based, Mycobacterium abscessus
Experiment [1] concerns M. abscessus subsp. abscessus K21. The experiment can be described thus: MIC assay, clinical isolate K21. The conditions noted are these: 90% inhibition of bacterial growth.
In experiment [2] the test system is M. abscessus Bamboo. The experiment can be described thus: Broth MBC90 (bMBC90). The settings on record: broth, 5 days. An excerpt:
Broth MIC, broth MBC90 (bMBC90), and caseum surrogate MBC90 ([…]) of clinically used antibiotics and of novel ADP-ribosylation-resistant rifabutin analogs against M. abscessus Bamboo have been evaluated.

The subject of experiment [3] is Δarr M. abscessus. The experiment can be described thus: MIC assay, isogenic arr-deleted strain. The settings on record: arr-deleted strain; 90% growth inhibition. The procedure, abridged:
(§1)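 Two-fold, ten-point dilutions in 7H9 with 2% DMSO; mid-log culture diluted to OD600=0.1 (1×10^7 CFU/mL). Incubated 3 days at 37 °C, shaking 110 RPM; growth = Day 3 minus Day 0 OD600, expressed as percentage of drug-free growth and plotted against concentration. Two biological replicates.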

The test system of experiment [4] is RFB-R1 M. abscessus. The experiment can be described thus: microbe, parasite or virus in culture.
Experiment [5] has as its system M. abscessus Bamboo. The experiment can be described thus: MIC assay, clinical isolate Bamboo.
In experiment [6] the test system is M. abscessus Bamboo. The experiment can be described thus: Caseum surrogate MBC90 (cMBC90) kill assay.
From the text: (§2) The surrogate matrix was generated as described previously from cultured THP-1 cells (ATCC TIB-202) (mBio, 2023, 14, e0059823). M. abscessus exponential cultures grown in Middlebrook 7H9 broth (Sigma Aldrich) (OD600 0.6-0.9) were spun down and resuspended in water to an OD600 of 7, 0.7, and 0.07. As described for the M. tuberculosis caseum surrogate assay (mnBio, 2023, 14, e0059823), the bacterial suspensions (at three different dilutions resulting in ˜10^9, 10^8, and 10^7 starting CFU/mL, represented by circle, square, and triangle indicators respectively) were added to the caseum surrogate in the ratio 2:1 (vol/wt), briefly homogenized with 1.4-mm zirconia beads, divided evenly into nine 1.5-mL microcentrifuge tubes, and incubated as standing cultures at 37° C. At the indicated time points, tubes were removed and used for CFU enumeration by plating on Middlebrook 7H11 agar (Sigma Aldrich). Separate tubes were used at each time point. To determine the kill curves, cultures with a starting CFU/mL of 10^8 were used (resulting in the middle curve with square indicators). Arrows indicate the time points when drugs were added and the end of the treatment. The experiment was repeated three times independently, yielding similar results. A representative example is shown. Dots and error bars represent means and standard deviations of three technical replicates, respectively.
FIGS. 29A-29M show the Dose-response kill curves against M. abscessus Bamboo in caseum surrogate. M. abscessus cultures were set up as described in the legend of FIG. 28. Bacterial cell suspensions were added to yield a starting CFU of 10^8/mL (FIG. 28, middle growth curve with square indicators). […] The shaded areas indicate drug concentration windows achieved in caseum in vivo. (Antimicrob. Agents Chemother., 2021, 65, e0050621; Antimicrob. Agents Chemother., 2022, 66, e0221221; PLoS Med., 2019, 16, e1002773; ACS Infect. Dis., 2016, 2, 251-267). The experiment was repeated twice independently, yielding similar results. A representative example is shown. Dots and error bars represent means and standard deviations of three technical replicates, respectively. Horizontal dotted lines indicate the cutoff for 1 log reduction in CFU compared to 10-day drug-free control culture. The cMBC90 values shown in Table 16 are the drug concentrations that reduce CFU by 90% relative to the CFU of drug-free controls at day 10. Since the cultures were in the stationary phase on day 5 when drug treatment started, the CFUs of the drug-free cultures at day 10 were similar to the CFUs of the drug-free cultures at day 5 (FIG. 28).
as §2, with “(doi: 10.1128/mbio.00598-23).” for “(mBio, 2023, 14, e0059823).”, “(doi: 10.1128/mbio.00598-23),” for “(mnBio, 2023, 14, e0059823),”, “CFU/mL)” for “CFU/mL, represented by circle, square, and triangle indicators respectively)”, “curves for the drugs,” for “curves,”, “used.” for “used (resulting in the middle curve with square indicators). Arrows indicate the time points when drugs were added and the end of the treatment.”, “results.” for “results. A representative example is shown. Dots and error bars represent means and standard deviations of three technical replicates, respectively.”
The experiment was repeated twice independently, yielding similar results. A representative example is shown. The cMBC90 values shown in Table 16 are the drug concentrations that reduce CFU by 90% relative to the CFU of drug-free controls at day 10. […]

Experiment [7] concerns M. abscessus ATCC 19977. The experiment can be described thus: MIC assay in 96-well plate format, wild-type strain. The procedure, abridged: as §1
The mark [8] stands for this setting: 90% inhibition of bacterial growth.

Molecules are shown by their SMILES. Converted amounts (≈) assume the structure as drawn. Bounds are passed on as bounds.

For the molecule `CO[C@H]1/C=C/O[C@@]2(C)Oc3c(C)c(O)c4c(c3C2=O)C2=NC3(CCN(CC(C)C)CC3)NC2=C(NC(=O)/C(C)=C/C=C/[C@H](C)[C@H](O)[C@@H](C)[C@@H](O)[C@@H](C)[C@H](OC(=O)c2ccccc2)[C@@H]1C)C4=O` [5a, 25-O-benzoyl rifabutin], the “Mab K21 MIC” value in experiment [1] was 0.098 µM. Also, the MBC in experiment [2] was determined as 0.30 µM (≈ 0.273 µg/mL); in experiment [6] (caseum surrogate, 5 days, 90% CFU reduction vs drug-free control, read-out: cMBC90), 8 µM (≈ 7.27 µg/mL). Further, the “Δarr Mab MIC” value in experiment [3] is 0.06 µM. For the same molecule, the “activity against rifamycin-resistant mutant RFB-R1” value in experiment [4] (RNAP point mutation) was “lost detectable activity”. Besides, the “RFB-R1 M. abscessus MIC” value in experiment [4] (rpoB H447Y mutant, 90% inhibition) was more than 100 µM. For the same molecule, the “Mab Bamboo MIC” value in experiment [5] (setting [8]) came out at 0.065 µM. Further, the MIC in experiment [5] (broth, M. abscessus Bamboo, Table 16, read-out: MIC) turned out to be 0.07 µM (≈ 0.0636 µg/mL); in experiment [7] (M. abscessus ATCC 19977, 90% growth inhibition, read-out: WT Mab MIC), 0.053 µM (≈ 0.0482 µg/mL). The cMBC90/bMBC90 in experiment [6] (5-day assays) worked out at 26.7. Further, the “Mab 19977 MIC” value in experiment [7] (setting [8]) is 0.053 µM. Further, the MIC ratio in experiment [7] (WT MIC/Δarr strain MIC) is listed as 0.9.

Usually MIC stands for the smallest concentration in the dilution series that meets the test's criterion for growth inhibition.
